We go through 16 compounds from PubChem BioAssay AID256 (DTP/NCI, 2004).

Values joined by “and” are separate entries in the source; they are usually repeats but may differ in a detail not shown here. Equal values may be shown once. Toxic doses and inconclusive results are not listed.

The experiment relates to CD2F1 mice, L1210 leukemia ip, survival T/C. The experiment is described as follows: NCI In Vivo Anticancer Drug Screen. Data for tumor model L1210 Leukemia (intraperitoneal) in CD2F1 (CDF1) mice. The conditions noted are these: higher = longer survival. The gist of the method:
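Activity against a transplanted murine tumor was judged by comparing the compound group with a vehicle group. The outcome in the treated animals was divided by that in the controls.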

Setting [1] is: endpoint: mean survival time, dose: 400.0 mg/kg/injection, schedule: Q01DX009 (ip), vehicle: saline with Tween-80.
[2] abbreviates: endpoint: mean survival time, dose: 100.0 mg/kg/injection, schedule: Q04DX003 (ip), vehicle: saline with Tween-80.
Where [3] appears, read: endpoint: mean survival time, dose: 200.0 mg/kg/injection, schedule: Q04DX003 (ip), vehicle: saline with Tween-80.
Where [4] appears, read: endpoint: mean survival time, dose: 400.0 mg/kg/injection, schedule: Q04DX003 (ip), vehicle: saline with Tween-80.

Consider `O=c1cc[nH]c(=S)[nH]1.[Pt]`, for which the T/C is 94 % of control (endpoint: mean survival time, dose: 3.13 mg/kg/injection, schedule: Q04DX003 (ip), vehicle: distilled water + Tween-80); 97 % of control (endpoint: mean survival time, dose: 6.25 mg/kg/injection, schedule: Q04DX003 (ip), vehicle: distilled water + Tween-80); 94 % of control (endpoint: mean survival time, dose: 12.5 mg/kg/injection, schedule: Q04DX003 (ip), vehicle: distilled water + Tween-80); 97 % of control (endpoint: mean survival time, dose: 25.0 mg/kg/injection, schedule: Q04DX003 (ip), vehicle: distilled water + Tween-80); 97 % of control (endpoint: mean survival time, dose: 50.0 mg/kg/injection, schedule: Q04DX003 (ip), vehicle: distilled water + Tween-80); 103 % of control (endpoint: mean survival time, dose: 100.0 mg/kg/injection, schedule: Q04DX003 (ip), vehicle: distilled water + Tween-80). The T/C (endpoint: mean survival time, dose: 200.0 mg/kg/injection, schedule: Q04DX003 (ip), vehicle: distilled water + Tween-80) is 102 % of control.
`Nc1ccc(C(=O)CCCN2CCCCC2)cc1`: the T/C is 107 % of control (endpoint: mean survival time, dose: 12.5 mg/kg/injection, schedule: Q04DX003 (ip), vehicle: saline); 95 % of control (endpoint: mean survival time, dose: 25.0 mg/kg/injection, schedule: Q04DX003 (ip), vehicle: saline); 107 % of control (endpoint: mean survival time, dose: 50.0 mg/kg/injection, schedule: Q04DX003 (ip), vehicle: saline).
Take `N[C@@H](C[C@H]1CCC(=O)[C@@H]2O[C@H]12)C(=O)O`: the T/C runs as follows: (endpoint: mean survival time, dose: 100.0 mg/kg/injection, schedule: Q04DX002 (ip), vehicle: saline) 117 % of control and 107 % of control; (endpoint: mean survival time, dose: 400.0 mg/kg/injection, schedule: Q04DX002 (ip), vehicle: saline) 167 % of control; (endpoint: median survival time, dose: 50.0 mg/kg/injection, schedule: Q01DX005 (ip), vehicle: saline) 113 % of control and 110 % of control; (endpoint: median survival time, dose: 100.0 mg/kg/injection, schedule: Q01DX005 (ip), vehicle: saline) 122 % of control and 124 % of control; (endpoint: median survival time, dose: 144.0 mg/kg/injection, schedule: Q01DX005 (ip), vehicle: saline) 110 % of control; (endpoint: median survival time, dose: 172.8 mg/kg/injection, schedule: Q01DX005 (ip), vehicle: saline) 119 % of control. In addition, the T/C reads like this: (endpoint: median survival time, dose: 240.0 mg/kg/injection, schedule: Q01DX005 (ip), vehicle: saline) 114 % of control; (endpoint: median survival time, dose: 288.0 mg/kg/injection, schedule: Q01DX005 (ip), vehicle: saline) 121 % of control; (endpoint: median survival time, dose: 800.0 mg/kg/injection, schedule: Q01DX005 (ip), vehicle: saline) 155 % of control.
Consider `Cc1ccc(S(=O)(=O)N=N/C=C2/C=CC=CN2O)cc1`, for which the T/C was 105 % of control (endpoint: mean survival time, dose: 20.0 mg/kg/injection, schedule: Q01DX009 (ip), vehicle: Klucel (hydroxypropylcellulose) (HPC)); 108 % of control (endpoint: mean survival time, dose: 40.0 mg/kg/injection, schedule: Q01DX009 (ip), vehicle: Klucel (hydroxypropylcellulose) (HPC)); 114 % of control (endpoint: mean survival time, dose: 45.0 mg/kg/injection, schedule: Q01DX009 (ip), vehicle: Klucel (hydroxypropylcellulose) (HPC)); 121 % of control (endpoint: mean survival time, dose: 87.5 mg/kg/injection, schedule: Q01DX009 (ip), vehicle: Klucel (hydroxypropylcellulose) (HPC)).
Regarding `Nc1nc(N)nc(CBr)n1`, the T/C (endpoint: mean survival time, dose: 3.13 mg/kg/injection, schedule: Q01DX001 (ip), vehicle: Klucel (hydroxypropylcellulose) (HPC)) is 98 % of control; the T/C (endpoint: mean survival time, dose: 6.25 mg/kg/injection, schedule: Q01DX001 (ip), vehicle: Klucel (hydroxypropylcellulose) (HPC)) is 98 % of control; the T/C (endpoint: mean survival time, dose: 12.5 mg/kg/injection, schedule: Q01DX001 (ip), vehicle: Klucel (hydroxypropylcellulose) (HPC)) is 88 % of control.
`COc1ccc(OC)c(NC(=O)NNC(=O)CNC(=O)Nc2cccc(C)n2)c1`: the T/C (endpoint: mean survival time, dose: 200.0 mg/kg/injection, schedule: Q01DX009 (ip), vehicle: saline with Tween-80) was 92 % of control and the T/C under setting [1] was 88 % of control.
For the compound `CCCCCC(C)C1(CCCC)NC(C)(C)CC(C)O1` (stereo not given), the T/C runs as follows: (endpoint: mean survival time, dose: 100.0 mg/kg/injection, schedule: Q04DX003 (ip), vehicle: saline) 95 % of control; (endpoint: mean survival time, dose: 200.0 mg/kg/injection, schedule: Q04DX003 (ip), vehicle: saline) 90 % of control.
As to `c1ccc2c(c1)Cc1c(NC3=NCCO3)cccc1-2`, the T/C runs as follows: under setting [2], 98 % of control; under setting [3], 109 % of control; under setting [4], 101 % of control.
Consider `COC(=O)C(Cl)(Cl)c1nc(NC(C)=O)[nH]c(=O)c1Cl`, for which the T/C by setting is: under setting [2], 95 % of control; under setting [3], 98 % of control; under setting [4], 91 % of control.
The corresponding values for `CCCCC#CC(C)C` are 98 % of control, 102 % of control and 102 % of control.
`CCCCNCC(=O)O[C@]1(CC)C(=O)OCc2c1cc1n(c2=O)Cc2cc3ccccc3nc2-1`: the T/C is, setting by setting: (endpoint: median survival time, dose: 7.5 mg/kg/injection, schedule: Q04DX002 (ip), vehicle: saline) 109 % of control; (endpoint: median survival time, dose: 7.5 mg/kg/injection, schedule: Q04HX004 (iv), vehicle: dextrose) 150 % of control; (endpoint: median survival time, dose: 7.5 mg/kg/injection, schedule: Q04HX004 (iv), vehicle: other) 158 % of control; (endpoint: median survival time, dose: 15.0 mg/kg/injection, schedule: Q04DX002 (ip), vehicle: saline) 117 % of control and 124 % of control; (endpoint: median survival time, dose: 15.0 mg/kg/injection, schedule: Q04HX004 (iv), vehicle: dextrose) 172 % of control; (endpoint: median survival time, dose: 15.0 mg/kg/injection, schedule: Q04HX004 (iv), vehicle: other) 186 % of control. Besides, the T/C (endpoint: median survival time, dose: 30.0 mg/kg/injection, schedule: Q04DX002 (ip), vehicle: saline) is 158 % of control; the T/C (endpoint: median survival time, dose: 30.0 mg/kg/injection, schedule: Q04HX004 (iv), vehicle: dextrose) is 218 % of control; the T/C (endpoint: median survival time, dose: 30.0 mg/kg/injection, schedule: Q04HX004 (iv), vehicle: other) is 235 % of control; the T/C (endpoint: median survival time, dose: 40.0 mg/kg/injection, schedule: Q04HX004 (iv), vehicle: other) is 247 % of control; the T/C (endpoint: median survival time, dose: 60.0 mg/kg/injection, schedule: Q04DX002 (ip), vehicle: saline) was 195 % of control and 212 % of control.
`CCN(C)N=Nc1ccc(C(N)=O)cc1`: the T/C is, setting by setting: (endpoint: mean survival time, dose: 18.75 mg/kg/injection, schedule: Q01DX009 (ip), vehicle: Klucel (hydroxypropylcellulose) (HPC)) 103 % of control; (endpoint: mean survival time, dose: 75.0 mg/kg/injection, schedule: Q01DX009 (ip), vehicle: Klucel (hydroxypropylcellulose) (HPC)) 156 % of control; (endpoint: mean survival time, dose: 100.0 mg/kg/injection, schedule: Q01DX009 (oral), vehicle: saline with Tween-80) 115 % of control; (endpoint: mean survival time, dose: 200.0 mg/kg/injection, schedule: Q01DX009 (oral), vehicle: saline with Tween-80) 120 % of control.
On to `C=C(C)C(=O)O[C@H]1[C@H]2[C@H](OC(=O)[C@H]2C)[C@H](O)[C@@H](C)[C@@H]2C=CC(=O)[C@]21C`, for which the T/C (endpoint: mean survival time, dose: 3.13 mg/kg/injection, schedule: Q01DX009 (ip), vehicle: saline) is 91 % of control; the T/C (endpoint: mean survival time, dose: 6.25 mg/kg/injection, schedule: Q01DX009 (ip), vehicle: saline) was 95 % of control; the T/C (endpoint: mean survival time, dose: 7.5 mg/kg/injection, schedule: Q01DX009 (ip), vehicle: saline) is 102 % of control; the T/C (endpoint: mean survival time, dose: 12.5 mg/kg/injection, schedule: Q01DX009 (ip), vehicle: saline) was 93 % of control; the T/C (endpoint: mean survival time, dose: 15.0 mg/kg/injection, schedule: Q01DX009 (ip), vehicle: saline) is 103 % of control; the T/C (endpoint: mean survival time, dose: 25.0 mg/kg/injection, schedule: Q01DX009 (ip), vehicle: saline) is 108 % of control. The T/C (endpoint: mean survival time, dose: 30.0 mg/kg/injection, schedule: Q01DX009 (ip), vehicle: saline) was 102 % of control.
For the compound `O=C(NC1CCc2ccccc21)c1ccccc1` (stereo not given), the T/C under setting [2] is 96 % of control, the T/C under setting [3] is 94 % of control, the T/C under setting [1] was 87 % of control and the T/C under setting [4] is 97 % of control.
Consider `COc1ccccc1N1C(=O)CSC1=S`, for which the T/C by setting is: under setting [2], 96 % of control; under setting [3], 93 % of control; under setting [4], 106 % of control.
For `C=C1N(C)c2ccccc2C1(C)C`, the T/C (endpoint: mean survival time, dose: 0.78 mg/kg/injection, schedule: Q01DX009 (ip), vehicle: saline with Tween-80) was 104 % of control; the T/C (endpoint: mean survival time, dose: 1.56 mg/kg/injection, schedule: Q01DX009 (ip), vehicle: saline with Tween-80) was 101 % of control; the T/C (endpoint: mean survival time, dose: 3.12 mg/kg/injection, schedule: Q01DX009 (ip), vehicle: saline with Tween-80) was 97 % of control; the T/C (endpoint: mean survival time, dose: 6.25 mg/kg/injection, schedule: Q01DX009 (ip), vehicle: saline with Tween-80) is 98 % of control; the T/C (endpoint: mean survival time, dose: 12.5 mg/kg/injection, schedule: Q01DX009 (ip), vehicle: saline with Tween-80) was 92 % of control and 100 % of control; the T/C (endpoint: mean survival time, dose: 25.0 mg/kg/injection, schedule: Q01DX009 (ip), vehicle: saline with Tween-80) was 94 % of control. The T/C (endpoint: mean survival time, dose: 50.0 mg/kg/injection, schedule: Q01DX009 (ip), vehicle: saline with Tween-80) was 94 % of control.
